# Reference: patent US20240099951A1, “HAIR GROWTH STIMULANT” (ADJUVANT HOLDINGS CO., LTD., priority 2020, published 2024)
# How the values were obtained:
# [1] = tested on: VEGF gene; assay: Human dermal papilla cell VEGF gene expression (real-time PCR); type: cell-based; conditions: 72 hours; for amount of expression of the VEGF gene as compared with the control group: human dermal papilla cells
# Protocol: Human dermal papilla cells (Catalog No. CA602t05a; derived from person; Toyobo Co., Ltd. (Japan)) were purchased, testing and evaluation being carried out with maintenance and culture of cells being performed as described in the protocol.
# As drugs for testing, drug solutions of the following respective concentrations (final concentrations) were prepared and used. • Comparative Example 5: 30 μM minoxidil • Comparative Example 6: 100 μM adenosine • Working Example 3: 0.3125 μM phytosphingosine • Working Example 4: 1.25 μM phytosphingosine
# A 24-well plate was seeded with human dermal papilla cells so as to obtain 6×10^3 thereof per well. Following culture for 1 day within a CO2 incubator (5% CO2; 37° C.), the culture medium was replaced with culture medium which contained the respective drugs for testing. The cell plate was thereafter returned to the CO2 incubator, and this was further cultured for 72 hours. Following culture, total RNA was extracted from the respective wells and was recovered, and this was reverse-transcribed into cDNA. The cDNA that was prepared was used to measure VEGF gene expression in accordance with the real-time PCR method. The GAPDH gene was used as an internal standard, the amount of VEGF gene expression being calculated relative to the negative control group. […]
# 300 μL of lysis buffer RL was added thereto per well, and the cells were lysed by pipetting. […] Concentration of the recovered RNA was measured using a NanoDrop Lite (Catalog No. ND-LITE; Thermo Fisher Scientific K.K.), and this was stored at −80° C. until the following cDNA creation procedure.
# A FastGene scriptase II cDNA synthesis 5X Ready Mix (Catalog No. NE-LS64; Nippon Genetics Co., Ltd. (Japan)) was used to synthesize cDNA. Dilution with RNase Free Water was carried out so as to cause concentration of total RNA produced in a new tube to be 20 ng/mL, 4 μL of FastGene scriptase II cDNA synthesis 5X Ready Mix was added to 16 μL of this sample solution, and this was agitated by vortexing. […]
# [2] = tested on: hair groups derived from C57BL/6N dorsal body hair skin transplanted in Balb/c nu/nu mice; assay: Evaluation of hair-diameter-increasing activity (hair shafts grown after third cycle of Exemplary Test 1); type: in vivo
# Protocol: Dorsal body hair skin was collected from C57BL/6N mice (SLC) of age 7 to 8 weeks in accordance with a procedure similar to that at Exemplary Test 1, above, the drug being applied after the hair groups derived from the dorsal body hair skin that had been fabricated were transplanted in Balb/c nu/nu mice (SLC) of age 4 to 6 weeks. Testing and breeding of animals complied with pertinent laws, regulations, ordinances, and guidelines, and was performed with the approval of the Experimental Ethics Review Board of the Institute of Physical and Chemical Research. The following three solutions were used during testing. • 60% aqueous ethanol solution • 5% minoxidil solution • 1% phytosphingosine solution Measurement of increase in hair diameter was carried out using hair shafts which had grown following completion of the third cycle at Exemplary Test 1. Of the hair shafts that were collected, two zigzag hairs were used. Three locations were selected in regions where diameter was large in the central portions thereof using a square 100 μm on a side. Measurement of selected regions was carried out at five locations. Hairs as they existed following application of the drug were used for measurement of hair shaft diameter.
compound,measurement,setting,value
CCCCCCCCCCCCCC[C@@H](O)[C@@H](O)[C@@H](N)CO [phytosphingosine],amount of expression of the VEGF gene as compared with the control group,[1]; 0.3125 μM phytosphingosine (Working Example 3),increase
same,amount of expression of the VEGF gene as compared with the control group,[1]; 1.25 μM phytosphingosine (Working Example 4),increase
same,amount of expression of the VEGF gene compared with 30 μM minoxidil (Comparative Example 5) or 100 μM adenosine (Comparative Example 6),[1]; increased amount of phytosphingosine added,greater
same,Hair shaft diameter,"[2]; 1% phytosphingosine solution applied, hair shafts after third cycle",20.15 μm
same,hair shaft diameter as percent of control,[2]; 1% phytosphingosine solution vs 60% aqueous ethanol solution,127%
